According to patent US20190382850A1, “METHOD FOR IDENTIFYING MITOCHONDRIAL DNA IN EXTRACELLULAR VESICLES AND TREATMENT OF MTDNA-RELATED DISORDERS AND CANCER” (Memorial Sloan-Kettering Cancer Center, priority 2017, published 2019):

How the values were obtained:
Type in all cases: cell-based, human
HTR tumor-derived cells = test: OXPHOS potential (Seahorse) in FACS sorted tumor-derived cancer cells ± HT; settings: fulvestrant 10 μM, FIG. 2b
Text: (§1) (Panel a) Representative tumor growth kinetics (BLI) of GFP+/Luciferase+MCF7 xenografts (n=10) treated with weekly fulvestrant once mammary fat pad tumors were established (after 3 months) which led to a period (4 months) of disease stability on HT (HTS) followed by exponential growth on HT (HTR). Representative H&E images of tumors and primary cultures from unsorted as well as FACS purified cancer cells (GFP+/Epcam+) and murine CAFs (GFP−/Epcam). Scale bar 20 μm. (Panel b) OXPHOS potential in tumor-derived cancer cells (panel a) was measured±HT (fulvestrant, 10 μM) by Seahorse. […] (Panel d) Percentage of metastatic lesions isolated by FACS from tumor-bearing mice (n=8/group) expressing murine mtDNA as determined by ND1 qPCR (2 ng of total DNA). Oxygen consumption rates (OCR) in murine-mtDNApos and ctrl HTR cells determined by Seahorse. (Panel e) Murine mitochondrial RNA expression (12 genes: ND1, ND2, COX2, ATP8, ATP6, COX3, ND3, ND4L, ND4, ND5, ND6, CytB) as fold change (logioscale) determined by qRT-PCR in HTR and HTS cells (panel a). […]
(§2) Mitochondrial respiration and OXPHOS potential in cells was assessed using Seahorse technology (www.seahorsebio.com)(Qian, W. & Van Houten, B. Alterations in bioenergetics due to changes in mitochondrial DNA copy number. Methods 51, 452-457 (2010)). […]

HTS cells = test: as above; settings: fulvestrant 10 μM, FIG. 2b
Text: as §1, §2

[1] = tested on: mitochondrial complex I and IV; test: Mitochondrial complex I/IV activity in HT-treated luminal breast cancer cell lines; settings: fulvestrant; FIG. 11e
Text: (Panel a), Representative bright field images of MCF7 po cells±CAF-EVs (3×10^9/weekly for 40 days). Bar graph of number of MS is also reported at the endpoint of the experiment (40 days). (Panel b), HT led to decreased expression of mRNA involved in protein synthesis and OXPHOS signaling with z score and -log (p-values)- as determined by Ingenuity analysis of microarray data from RNA isolated FIG. 5a (MCF7), single P values are also reported. (Panel c), OXPHOS potential determined as changes of respiration rate under mitochondrial stressors by seahorse technology (oligomycin 1 μM, rotenone 100 nM) in cancer cells isolated from FIG. 5b (MCF7, PT1). […] (Panel e), Mitochondrial Complex I/IV activity quantification as determined by nmol/min/mg of protein in luminal breast cancer cell lines from panel a. […]
To measure mitochondrial complex activity, cell pellets were resuspended in assay buffer (125 mM sucrose, 0.1 mM EDTA, 25 mM Tris-HCl pH 7.5, 0.025% Lauryl-β-D-maltoside), and enzymatic activities were assayed with 0.1-0.4·10^6 cells/ml at 25° C. spectrophotometrically. NADH:HAR reductase activity of Complex I was measured as a decrease in absorption at 340 nm (ε340 nm=6.22 mM-1 cm-1) with 200 μM NADH, 1mM HAR and 1 mM KCN. Complex IV activity was measured as cytochrome oxidation at 550 nm (ε550 nm=21.5 mM-cm-) with 50 μM ferrocytochrome c. […] Protein content was determined with a BCA assay.

## C[C@]12CC[C@@H]3c4ccc(O)cc4C[C@@H](CCCCCCCCC[S+]([O-])CCCC(F)(F)C(F)(F)F)[C@H]3[C@@H]1CC[C@@H]2O (stereo partly drawn) [fulvestrant]
HTR tumor-derived cells
  OXPHOS capacity of HTR tumor-derived cells: unaffected
HTS cells
  OXPHOS potential of HTS cells: inhibited
[1]
  mitochondrial complex I and IV activity in cells treated with HT: reduced
